In assay [1] the test system is hTERT-HPNE cell line. In words: MTT assay, normal pancreas hTERT-HPNE cells. Type of assay: cell-based. As to conditions: normal human pancreas cells, 24 h, read-out: IC50 against hTERT-HPNE. As to the method: (§1) By comparing the compounds’ cytotoxic effects against tumor cell lines and normal cell lines, the drug safety parameter for the anticancer activity of the compounds was evaluated, thereby confirming their cytoprotective qualities. In this study, normal human lung (CCD-19Lu) and normal human pancreas (hTERT-HPNE) cell lines were used as controls. The selectivity index (SI) calculated for the compounds tested scales the IC50 values of the compounds against various tumor cell lines with the IC50 values against normal cell lines (Table 2). […] The differential selectivity indices underscore the importance of targeted therapeutic strategies and the potential for these compounds to provide selective anticancer effects with reduced toxicity to normal cells.
(§2) Many analyses are performed to determine cell proliferation. MTT analysis is one of the viability determination tests. According to the working mechanism of the method, the dye containing the tetrazolium ring reacts with the dehydrogenase enzymes in the cells, only to be reduced and broken down by the metabolic cells, turning into water-insoluble formazan crystals. Color changes associated with mitochondrial activity and resulting from the addition of a solvent as a result of the reaction are measured in the microplate reader as optical density data values.[30] Cells were planted in flat-bottomed, 96-well, sterile, lidded, disposable microplates with 1 × 10^4 cells per well in 200 μL of appropriate medium and were allowed to adhere to the plate bottom by incubating for 24 h. At the end of 24 h, 100 μL of medium was withdrawn, and test substances at different concentrations, prepared in 100 μL, were added. Following the substance application, after a 24 h incubation period, 20 μL of stock MTT solution (MTT solution dissolved in 5 mg/mL PBS and filtered before application) was added to each well and protected from light, and the incubation continued for 3 h. Then, the media of the cells were completely withdrawn, and 100 μL of DMSO was added to dissolve the formazan crystals. After shaking in the dark for 15 min, the optical densities (absorbance) of the color changes at 540–570 and 650 nm reference wavelengths were read in the microplate reader. The data were calculated and created in Microsoft Office Excel. For this purpose, first, the blind well value and the control groups of colored substances were removed from the optical readings. The averages of optical densities and % viability values were made from Excel formula calculations, and the results were discussed. The viability of the control group was assumed to be 100%, and all other viability values were calculated based on this (series were run in n = 5 replicates).

In assay [2] the test system is MCF-7 cell line. Kind of assay: MTT assay, MCF-7 cells. Type of assay: cell-based, human. Particulars: Homo sapiens, MCF7, 24 h, read-out: IC50 against MCF-7. As to the method:
(§3) The synthesized compounds 4a–4s were screened for their in vitro anticancer activity via the standard MTT assay using three human tumor cell lines, namely, the human lung adenocarcinoma cell line (A549), the human breast cancer cell line (MCF-7), and the human pancreas cell line (PANC-1). Cisplatin was used as a reference drug. […] When the structures of the compounds are evaluated, it is seen that the compounds are derived from two different sources. There are hydroxyl and methoxy substituents on the phenyl ring attached to the benzimidazole. It has also been derivatized using different groups on the phenyl ring close to oxadiazole. When the activities in the PANC-1 cell line are evaluated, it is seen that the activity of compounds bearing the 2,4-dichloro substituent is especially high.
as §2

In assay [3] the test system is CCD-19Lu cell line. In words: MTT assay, normal lung CCD-19Lu cells. Type of assay: cell-based. As to conditions: CCD 19Lu, normal human lung cells, 24 h, read-out: IC50 against CCD-19Lu. As to the method: as §1, §2
(Formazan colour is commonly taken as a measure of viable cells.)

In assay [4] the test system is VEGFA. Kind of assay: VEGFA immunofluorescent staining in MCF-7 cells. It is filed as cell-based, human. Particulars: 24 h treatment, anti-VEGFA antibody, semiquantitative scoring. The text has this: An endogenous angiogenic growth factor called VEGFA primarily promotes the migration and proliferation of vascular endothelial cells.[2] Fluorescent staining degrees of the MCF-7 cancer cell line, marked with an anti-VEGFA antibody and immunofluorescence technique, were compared under light microscopy (Figure 4). […] Five different areas were selected for each group. All cell nuclei seen in the selected areas are compared with those stained VEGFA positive.
For VEGFA immunofluorescent staining, cells were grown on sterile coverslips in 6-well culture dishes. The cells were purified from the medium and washed with phosphate-buffered saline (PBS) (Sigma-Aldrich, Germany). The washed cells were fixed in ph 7.4% paraformaldehyde (Merk, Germany) for 20 min at room temperature. After fixation, the cells were washed two times with PBS for 5 min. For permeability, the cells were incubated in 0.1% Triton X-100 (Sigma-Aldrich, Germany) solution for 10 min. PBS was then washed for 5 min. After washing, Ultra V Block (Thermo Scientific, PBQ180830, USA) was dropped and waited at room temperature for 30 min to prevent nonspecific binding. […] Fluorescent microscopy (Olympus BX51, Japan) was employed by using suitable filters for fluorescence examination and then by making a registration.

Assay [5] deals with A549 cell line. In words: MTT assay, A549 cells. Type of assay: cell-based, human. Particulars: for IC50: Homo sapiens, A549, MTT, 24 h, read-out: IC50 against A549. As to the method: as §3, §2
In assay [6] the target is T1, VEGFR2 (Homo sapiens, UniProt P35968).
T1 construct: purchased
T1 sequence (P35968 20-1356): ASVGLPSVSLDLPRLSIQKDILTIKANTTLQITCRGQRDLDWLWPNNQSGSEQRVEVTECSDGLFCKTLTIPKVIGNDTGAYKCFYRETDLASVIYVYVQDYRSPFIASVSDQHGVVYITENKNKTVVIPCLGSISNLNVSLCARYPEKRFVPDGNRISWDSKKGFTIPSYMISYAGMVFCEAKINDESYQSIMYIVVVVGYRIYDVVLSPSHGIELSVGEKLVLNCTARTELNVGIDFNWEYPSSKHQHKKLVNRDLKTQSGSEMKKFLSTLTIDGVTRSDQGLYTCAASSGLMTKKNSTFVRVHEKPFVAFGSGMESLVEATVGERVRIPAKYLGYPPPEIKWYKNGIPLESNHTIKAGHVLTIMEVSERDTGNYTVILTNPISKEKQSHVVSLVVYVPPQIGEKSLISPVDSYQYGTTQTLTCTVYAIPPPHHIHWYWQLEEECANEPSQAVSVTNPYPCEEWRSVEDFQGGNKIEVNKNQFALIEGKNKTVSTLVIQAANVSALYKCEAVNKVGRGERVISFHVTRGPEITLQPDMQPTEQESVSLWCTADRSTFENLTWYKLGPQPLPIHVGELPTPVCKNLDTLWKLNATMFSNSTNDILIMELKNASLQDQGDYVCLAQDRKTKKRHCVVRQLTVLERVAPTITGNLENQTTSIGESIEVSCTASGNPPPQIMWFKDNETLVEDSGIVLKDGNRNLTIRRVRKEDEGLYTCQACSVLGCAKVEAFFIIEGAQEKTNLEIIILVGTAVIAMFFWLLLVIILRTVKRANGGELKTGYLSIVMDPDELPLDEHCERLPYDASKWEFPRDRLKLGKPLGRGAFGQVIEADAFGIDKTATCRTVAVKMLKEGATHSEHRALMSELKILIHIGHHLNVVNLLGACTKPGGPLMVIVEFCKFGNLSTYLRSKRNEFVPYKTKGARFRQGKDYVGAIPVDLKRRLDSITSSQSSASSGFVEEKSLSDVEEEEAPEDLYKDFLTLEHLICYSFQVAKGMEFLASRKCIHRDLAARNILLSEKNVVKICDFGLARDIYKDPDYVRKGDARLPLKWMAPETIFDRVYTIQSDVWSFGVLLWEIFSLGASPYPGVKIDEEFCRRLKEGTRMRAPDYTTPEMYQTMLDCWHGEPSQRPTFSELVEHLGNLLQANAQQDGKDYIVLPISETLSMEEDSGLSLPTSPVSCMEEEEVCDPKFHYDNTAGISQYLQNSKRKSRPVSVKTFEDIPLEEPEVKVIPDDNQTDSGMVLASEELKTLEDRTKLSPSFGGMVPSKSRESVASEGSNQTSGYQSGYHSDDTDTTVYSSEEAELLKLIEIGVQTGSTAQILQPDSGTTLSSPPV
Kind of assay: VEGFR2 Kinase Assay Kit inhibition. Type of assay: biochemical. As to conditions: read-out: IC50 against VEGFR2. As to the method:
The VEGFR2 Kinase Assay Kit was used for VEGFR2 inhibition. The experiment was performed in vitro according to the kit procedure.[31]

Assay [7] relates to PANC-1 cell line. Kind of assay: MTT assay, PANC-1 cells. Type of assay: cell-based, human. As to conditions: for IC50: MTT, 24 h, read-out: IC50 against PANC-1. As to the method:
Cisplatin was used as a reference drug. […] There are hydroxyl and methoxy substituents on the phenyl ring attached to the benzimidazole. It has also been derivatized using different groups on the phenyl ring close to oxadiazole.
as §2

The text below walks through data of paper PMC11866186, “Novel Benzimidazole–Oxadiazole Derivatives as Anticancer Agents with VEGFR2 Inhibitory Activity: Design, Synthesis, In Vitro Anticancer Evaluation, and In Silico Studies” (ACS Omega, 2025).

The structures appear in SMILES notation. Like-named read-outs stand apart in the source and are kept apart here.

For the compound `COc1ccc(-c2nc3ccc(-c4nnc(SCC(=O)c5ccc(Cl)cc5Cl)o4)cc3[nH]2)cc1` [4r, 2-((5-(2-(4-Methoxyphenyl)-1H-benzimidazol-6-yl)-1,3,4-oxadiazol-2-yl)thio)-1-(2,4-dichlorophenyl)-ethanone], the IC50 in assay [1] is 10900 nM; in assay [2], 500 nM; in assay [3], 800 nM; in assay [5], 300 nM. The “VEGFA immunolocalization compared with control” value in assay [4] is recorded as “less VEGFA immunolocalization”.

In the case of `COc1ccc(-c2nc3ccc(-c4nnc(SCC(=O)c5ccc(O)c(O)c5)o4)cc3[nH]2)cc1` [4s, 2-((5-(2-(4-Methoxyphenyl)-1H-benzimidazol-6-yl)-1,3,4-oxadiazol-2-yl)thio)-1-(3,4-dihydroxyphenyl)-ethanone], the IC50 was 38300 nM in assay [1]; 502 ± 28 nM in assay [6]; 1200 nM in assay [2]; 6700 nM in assay [7] (Homo sapiens, PANC-1, 24 h); 6600 nM in assay [7]; 1300 nM in assay [3]. Besides, in assay [5], the IC50 was determined as 1600 nM. In addition, in assay [7] (SI = cytotoxicity against hTERT-HPNE cells/cytotoxicity against PANC-1 cell line), the “Selectivity index (PANC-1)” value is 5.80. The “VEGFA immunolocalization compared with control” value in assay [4] is reported as “less VEGFA immunolocalization”. The “Selectivity index (A549)” value in assay [5] (SI = cytotoxicity against CCD-19Lu cells/cytotoxicity against A549 cell line) is on record as 0.81.

The term IC50 denotes the concentration needed to halve the response being measured.
